Each compound was assayed on human iTCR (assay: In vitro activation of human iTCR through Jurkat reporter cell line (JiNKT, GFP under NFkB promoter) with drug-loaded BWSTIM cells). Details: BWSTIM loaded 4 hours, co-culture with JiNKT 18 to 24 hours; FIG. 1.
Assay type: cell-based
Description: In order to determine the human iTCR activation potential induced by the compounds described herein, a jurkat cell line (JiNKT) was transfected with the human iTCR, and GFP under the NFkB promoter (cell line licensed from the Medical University of Vienna). A BWS147 cell line (BWSTIM) was also transfected with CD80 and CD1d to act as the antigen-presenting cell.
(§1) DCD molecules or α-GalCer were both dissolved in DMSO at a 5 mg/mL stock solution. BWSTIM cells were loaded with DCD molecules or α-GalCer at varying concentrations for 4 hours at 37° C. at a concentration of 20 k cells/well in 200 μL of media in a u-bottom 96 well dish. BWSTIM cells were washed 2× with media, then incubated with JiNKT cells at a concentration of 80 k cells/well in a u-bottom 96 well dish. Cells were co-cultured for 18 to 24 hours. The percentage of cells expressing high levels of GFP was measured through flow cytometry (after gating out the mCD45+ BWSTIM cells).
A jurkat cell line (JiNKT) was transfected with the human iTCR, and GFP under the NFkB promoter. A BWS147 cell line (BWSTIM) was also transfected with CD80 and CD1d to act as the antigen-presenting cell. A mouse iNKT hybridoma cell line (DN3.2) was also used as the iNKT. […]
as §1, with “GVK” for “DCD”, “compounds” for “DCD molecules or α-GalCer at varying concentrations”, “for” for “for 18 to”, “cytometry. 1 μg/mL of molecule GVK1a, GVK1b, GVK1c, or GVK1f was incubated with BWSTIM+JiNKT, and compared to α-GalCer.” for “cytometry (after gating out the mCD45+ BWSTIM cells).”

Compound | EC50 of the dose response based on percentage GFP+ cells, compared to α-GalCer
CCCCCCCCCCCCCC[C@@H](O)[C@@H](O)[C@H](COC1OC(CO)C(O)C(O)C1O)NC(=O)CCCCCCCCCCCC12C3C4C5C3C1C5C42 (some centres unmarked) [DCD-103] | lower EC50s compared to α-GalCer
CCCCCCCCCCCCCC[C@@H](O)[C@@H](O)[C@H](COC1OC(CO)C(O)C(O)C1O)n1cc(CCCCCCN(CCCCCCC)CCCCCCC)nn1 (some centres unmarked) [DCD-104] | lower EC50s compared to α-GalCer
CCCCCCCCCCCCCC[C@@H](O)[C@@H](O)[C@H](COC1OC(CO)C(O)C(O)C1O)NC(=O)CCCCCCCCCCCC12CC(F)(C1)C2 (some centres unmarked) [DCD-113] | lower EC50s compared to α-GalCer
CCCCCCCCCCCCCC[C@@H](O)[C@@H](O)[C@H](COC1OC(CO)C(O)C(O)C1O)NC(=O)CCCCCCCCCCC12C3C4C5C3C1C5C42 (some centres unmarked) [DCD-114] | lower EC50s compared to α-GalCer
CCCCCCCCCCCCCC[C@@H](O)[C@@H](O)[C@H](COC1OC(CO)C(O)C(O)C1O)NC(=O)CCCCCCCCCCC1COC1 (some centres unmarked) [DCD-118] | lower EC50s compared to α-GalCer
CCCCCCCCCCCCCC[C@@H](O)[C@@H](O)[C@H](COC1OC(CO)C(O)C(O)C1O)NC(=O)CCCCCCCCCCC1(C)COC1 (some centres unmarked) [DCD-119] | lower EC50s compared to α-GalCer
CCCCCCCCCCCCCC[C@@H](O)[C@@H](O)[C@H](COC1OC(CO)C(O)C(O)C1O)NC(=O)CCCCCCCCCCC1CCOC1 (some centres unmarked) [DCD-121] | lower EC50s compared to α-GalCer
CCCCCCCCCCCCCC[C@@H](O)[C@@H](O)[C@H](COC1OC(CO)C(O)C(O)C1O)NC(=O)CCCCCCCCCCC1CCOCC1 (some centres unmarked) [DCD-122] | lower EC50s compared to α-GalCer
CCCCCCCCCCCCCC[C@@H](O)[C@@H](O)[C@H](COC1OC(CO)C(O)C(O)C1O)NC(=O)CCCCCCCCCCC1CN(C(=O)OC(C)(C)C)C1 (some centres unmarked) [DCD-125] | lower EC50s compared to α-GalCer
CCCCCCCCCCCCCC[C@@H](O)[C@@H](O)[C@H](COC1OC(CO)C(O)C(O)C1O)NC(=O)CCCCCCCCCCC1CCS(=O)(=O)CC1 (some centres unmarked) [DCD-127] | lower EC50s compared to α-GalCer
CCCCCCCCCCCCCC[C@@H](O)[C@@H](O)[C@H](COC1OC(CO)C(O)C(O)C1O)NC(=O)CCCCCCCCCCC1CCN(C(=O)OC(C)(C)C)C1 (some centres unmarked) [DCD-128] | lower EC50s compared to α-GalCer
CCCCCCCCCCCCCC[C@@H](O)[C@@H](O)[C@H](COC1OC(CO)C(O)C(O)C1O)NC(=O)CCCCCCCCCCN1CCOCC1.Cl (some centres unmarked) [DCD-130] | lower EC50s compared to α-GalCer
CCCCCCCCCCCCCC[C@@H](O)[C@@H](O)[C@H](COC1OC(CO)C(O)C(O)C1O)NC(=O)CCCCCCCCCCN1CCSCC1.Cl (some centres unmarked) [DCD-133] | lower EC50s compared to α-GalCer
CCCCCCCCCCCCCC[C@@H](O)[C@@H](O)[C@H](COC1OC(CO)C(O)C(O)C1O)NC(=O)CCCCCCCCCCN1CCS(=O)(=O)CC1 (some centres unmarked) [DCD-136] | lower EC50s compared to α-GalCer
CCCCCCCCCCCCCC[C@@H](O)[C@@H](O)[C@H](COC1OC(CO)C(O)C(O)C1O)NC(=O)CCCCCCCCCCS(=O)(=O)C(C)C (some centres unmarked) [DCD-137] | lower EC50s compared to α-GalCer
CCCCCCCCCCCCCC[C@@H](O)[C@@H](O)[C@H](COC1OC(CO)C(O)C(O)C1O)NC(=O)CCCCCCCCCOC1CCS(=O)(=O)CC1 (some centres unmarked) [DCD-138] | lower EC50s compared to α-GalCer
CCCCCCCCCCCCCC[C@@H](O)[C@@H](O)[C@H](COC1OC(CO)C(O)C(O)C1O)NC(=O)CCCCCCCCCOC1CCOCC1 (some centres unmarked) [DCD-139] | lower EC50s compared to α-GalCer
CCCCCCCCCCCCCC[C@@H](O)[C@@H](O)[C@H](COC1OC(CO)C(O)C(O)C1O)NC(=O)CCCCCCCOCCC1CCOCC1 (some centres unmarked) [DCD-140] | lower EC50s compared to α-GalCer
CCCCCCCCCCCCCC[C@@H](O)[C@@H](O)[C@H](COC1OC(CO)C(O)C(O)C1O)NC(=O)CCCCCCCCOCC1CCOCC1 (some centres unmarked) [DCD-141] | lower EC50s compared to α-GalCer
CCCCCCCCCCCCCC[C@@H](O)[C@@H](O)[C@H](COC1OC(CO)C(O)C(O)C1O)NC(=O)CCCCCCOCCCC1CCOCC1 (some centres unmarked) [DCD-143] | lower EC50s compared to α-GalCer
CCCCCCCCCCCCCC[C@@H](O)[C@@H](O)[C@H](COC1OC(CO)C(O)C(O)C1O)NC(=O)CCCCCOCCCCC1CCOCC1 (some centres unmarked) [DCD-144] | lower EC50s compared to α-GalCer
CCCCCCCCCCCCCC[C@@H](O)[C@@H](O)[C@H](COC1OC(CO)C(O)C(O)C1O)NC(=O)CCCCCCCCCCCCCCCCCCCCCCC12CC(F)(C1)C2 (some centres unmarked) [DCD-148] | lower EC50s compared to α-GalCer
CCCCCCCCCCCCCC[C@@H](O)[C@@H](O)[C@H](COC1OC(CO)C(O)C(O)C1O)NC(=O)CCCCCCCCCCCCCCCCCCCCCCC1COC1 (some centres unmarked) [DCD-149] | lower EC50s compared to α-GalCer
CCCCCCCCCCCCCC[C@@H](O)[C@@H](O)[C@H](COC1OC(CO)C(O)C(O)C1O)NC(=O)CCCCCCCCCCCCCCCCCCCCCC1COC1 (some centres unmarked) [DCD-150] | lower EC50s compared to α-GalCer
CCCCCCCCCCCCCC[C@@H](O)[C@@H](O)[C@H](COC1OC(CO)C(O)C(O)C1O)NC(=O)CCCCCCCCCCCCCCCCCCCCCC12CC(F)(C1)C2 (some centres unmarked) [DCD-151] | lower EC50s compared to α-GalCer
CCCCCCCCCCCCCC[C@@H](O)[C@@H](O)[C@H](COC1OC(CO)C(O)C(O)C1O)NC(=O)CCCCCCCCCCCCCCCCCCCCCCCC12CC(F)(C1)C2 (some centres unmarked) [DCD-155] | lower EC50s compared to α-GalCer

Same assay, conditions: ranking among tested compounds, at the lowest concentration

Compound | % GFP+
CCCCCCCCCCCCCC[C@@H](O)[C@@H](O)[C@H](COC1OC(CO)C(O)C(O)C1O)NC(=O)CCCCCCCCCCC1CCS(=O)(=O)CC1 (some centres unmarked) [DCD-127] | highest % GFP+ at the lowest concentration

Each compound was assayed on primary human iNKT cells (assay: Cytokine secretion of primary human iNKT cells co-cultured with drug-loaded BWSTIM cells). Details: BWSTIM loaded with 10 μg/mL; FIG. 3A.
Assay type: cell-based
Description: In order to determine the activation profile induced by the compounds described herein, primary human iNKT cells were co-cultured with drug-loaded BWSTIM cells.
Day 0: PBMCs were isolated from human blood using the STEMCELL TECHNOLOGIES™ SepMate™ PBMC isolation system. iNKT cells were then selected using the Miltenyi NKT magnetic cell separation kit.
Day 2: DCD molecules or α-GalCer were both dissolved in DMSO at a 5 mg/mL stock solution. BWSTIM cells were fixed with mitomycin C, then loaded with 10 μg/mL of DCD molecules or α-GalCer for 4 hours at 37° C. at a concentration of 20 k cells/well in 200 μL of media in a u-bottom 96 well dish. Cells were co-cultured with 80 k 6B11+ selected primary human iNKT cells.
D4: Media was collected. Cytokines were measured using the Satorious 4Plex kit on the iQue3 cytometer.
GVK molecules or α-GalCer were both dissolved in DMSO at a 5 mg/mL stock solution. BWSTIM cells were loaded with compounds for 4 hours at 37° C. at a concentration of 20 k cells/well in 200 μL of media in a u-bottom 96 well dish. Cells were co-cultured with 100 k 6B11+ selected primary human iNKT cells. Media was collected 2 days later. Cytokines were measured using the Satorious 4Plex kit on the iQue3 cytometer.

Compound | IFNγ secretion compared to the no-compound control
CCCCCCCCCCCCCC[C@@H](O)[C@@H](O)[C@H](COC1OC(CO)C(O)C(O)C1O)n1cc(CCCCCCN(CCCCCCC)CCCCCCC)nn1 (some centres unmarked) [DCD-104] | significantly higher levels

Same assay, conditions: BWSTIM loaded with 10 μg/mL; FIG. 3B

Compound | IL6 secretion compared to the no-compound control
CCCCCCCCCCCCCC[C@@H](O)[C@@H](O)[C@H](COC1OC(CO)C(O)C(O)C1O)n1cc(CCCCCCN(CCCCCCC)CCCCCCC)nn1 (some centres unmarked) [DCD-104] | significantly higher levels

Same assay, conditions: BWSTIM loaded with 10 μg/mL; FIG. 3C

Compound | TNFα secretion compared to the no-compound control
CCCCCCCCCCCCCC[C@@H](O)[C@@H](O)[C@H](COC1OC(CO)C(O)C(O)C1O)n1cc(CCCCCCN(CCCCCCC)CCCCCCC)nn1 (some centres unmarked) [DCD-104] | significantly higher levels

Each compound was assayed on serum IFNγ (assay: In vivo serum IFNγ (ELISA) in C57BL/6J mice). Details: 2 μg I.P.; twenty hours post-injection; FIG. 4A.
Description: In order to determine the expansion induced by the molecules described herein, molecules were injected into C57BL/6J mice. Serum IFNγ levels and the expansion of iNKT cells within splenocytes was measured 4 days post-IP injection.
Eight weeks old C57BL/6J mice were injected (I.P.) with 2 μg of α-GalCer or DCD molecules. Molecules were either dissolved in DMSO at a 5 mg/mL stock solution, or formulated into liposomes through thin-film rehydration, then extrusion through 200 nm filters. Liposome-based formulations were constructed using soy phosphatidylcholine, cholesterol, and DCD or α-GalCer in a 2:1:0.15 ratio. Twenty hours post-injection, blood was collected from the tail to measure the level of serum IFNγ using an ELISA kit from Biolegend. Four days post-injection, the mice were sacrificed and the spleenocytes were isolated. The percentage of iNKT cells within the spleens was measured using flow cytometry, selecting for live cells and mouse CD1d-α-GalCer tetramer+ cells.

Compound | average serum IFNγ compared to α-GalCer
CCCCCCCCCCCCCCCCCC[Si](C)(C)CCCCCCC(=O)N[C@@H](COC1OC(CO)C(O)C(O)C1O)[C@H](O)[C@H](O)CCCCCCCCCCCCCC (some centres unmarked) [DCD-152] | higher than the average serum IFNγ of C57BL/6J mice treated with α-GalCer
CCCCCCCCCCCCCC[C@@H](O)[C@@H](O)[C@H](COC1OC(CO)C(O)C(O)C1O)NC(=O)CCCCCCCCCCCCCCCCCCCCCCCC12CC(F)(C1)C2 (some centres unmarked) [DCD-155] | higher than the average serum IFNγ of C57BL/6J mice treated with α-GalCer

— patent US12655171B2, “Compounds for activating invariant natural killer T-cells and methods of use in eliminating inflammatory senescent cells” (Deciduous Therapeutics, Inc., priority 2021, dated 2026)
